Source: a melting point compilation (Tetko et al.)

SMILES | melting point
CC(C)(C)c1csc(-c2ccc(O)cc2)n1 | 228 to 230 °C
COCCNC(=O)NC(=O)CCl | 103 to 105 °C
C=Cn1ccnc1CO | 103 to 105 °C
COC(=O)c1cc(OC)c(OC(F)F)cc1N | 89 to 91 °C
Cc1ccc(C(=O)NN)c(O)c1 | 173 to 175 °C
NC(CC(=O)O)C1CC1 (configuration not stated) | 209 to 211 °C
O=C(O)CC1CCCN1C(=O)c1ccc(Br)c(F)c1 (configuration not stated) | 134 to 136 °C
CC1Cc2cc(S(=O)(=O)Cl)ccc2O1 (configuration not stated) | 73 to 75 °C
CS(=O)(=O)Nc1ccc(S(N)(=O)=O)cc1F | 190 to 192 °C
COC(=O)c1sc(N)nc1C1CC1 | 184 to 186 °C
O=C(O)c1cc(=O)n(Cc2ccccc2)c2ccccc12 | 215 to 217 °C
CCCCCc1sc(N)c(C(N)=O)c1C | 129 to 131 °C
Cc1noc(C)c1C(C)C(=O)O (configuration not stated) | 101 to 103 °C
CC(=O)Nc1ccc(F)c(C(=O)O)c1 | 259 to 261 °C
ICc1cccc2cccnc12 | 79 to 81 °C
NC(=O)Nc1ccc(S(=O)(=O)F)cc1 | 177 to 179 °C
FC(F)(F)c1ccc(CNc2ccc(Br)cc2)cc1 | 70 to 72 °C
Brc1cc[nH]n1 | 74 to 76 °C
COCc1c(C(=O)O)sc2ccccc12 | 159 to 161 °C
NCCc1nc2ccccc2s1 | 47 to 49 °C
CC1(C)C(=O)NS1(=O)=O | 137 to 139 °C

SMILES | melting point
Cc1cc(C)c2c(c1)NC(=O)C2=O | 233 to 235 °C
O=C(CCl)c1ccc(Br)cc1 | 119 to 121 °C
CC(O)c1ccccc1-c1ccccc1 (configuration not stated) | 104 to 106 °C
CC(C)(C)OC(=O)N1C2CCC1CC(CC(=O)O)C2 (configuration not stated) | 104 to 106 °C
O=C1C=CC(=O)N1CCO | 59 to 61 °C
Cc1c([N+](=O)[O-])cc(C(=O)O)cc1S(=O)(=O)Cl | 176 to 178 °C
CC(C)C(NC(=O)COc1ccccc1)C(=O)O (configuration not stated) | 165 to 167 °C
OCc1nc(Cc2ccc(F)cc2)no1 | 53 to 55 °C
CCC1CCC2(CC1)NC(=O)N(CC(=O)O)C2=O (configuration not stated) | 214 to 216 °C
Cc1cc(NC(=O)c2ccccc2I)sc1C(=O)O | 202 to 204 °C
CC(C)Cn1c(=O)[nH]c(=O)c2c(S)nc(CC3CC4CCC3C4)nc21 (configuration not stated) | 311 to 313 °C
Cc1csc(C(O)C(F)(F)F)n1 (configuration not stated) | 122 to 124 °C
NC(=O)C1CCN(C(=O)CCl)CC1 | 136 to 138 °C
COc1cc(-c2cc(C(=O)NN)c3ccccc3n2)cc(OC)c1OC | 200 to 202 °C
O=C(CCl)Nc1cc(S(=O)(=O)N2CCOCC2)ccc1Cl | 131 to 133 °C
O=C(O)c1n[nH]c2c1CCCC2 | 249 to 251 °C
CC(=O)c1cccc(N(S(C)(=O)=O)S(C)(=O)=O)c1 | 185 to 187 °C
NC(=S)CC(N)=S | 202 to 204 °C
COc1ccc(C(=O)O)cc1S(=O)(=O)N1CCCC1 | 218 to 220 °C
O=C(O)C1CC(=O)N(c2ccc(Cl)c(F)c2)C1 (configuration not stated) | 149 to 151 °C
Cc1ccc(S(=O)(=O)NC2CC2)cc1C(=O)O | 252 to 257 °C

SMILES | melting point
FC(F)(F)c1ccc2sc(Cl)nc2c1 | 57 to 59 °C
CC1=NOC(=O)C1CC(=O)O (configuration not stated) | 149 to 151 °C
O=C(O)c1cc(S(=O)(=O)N2CCOCC2)ccc1Cl | 183 to 185 °C
O=S(=O)(Cl)c1cccc2c1OCCO2 | 74 to 76 °C
NC(=O)C1CCCCS1 (configuration not stated) | 164 to 166 °C
CC(C)(C)C(=O)Nc1ccc(C(=O)CCl)cc1 | 132 to 134 °C
CCc1[nH]nc(N)c1-c1ccc2c(c1)OCO2 | 97 to 99 °C
CC(C)c1cc(C(=O)O)cc(O)n1 | 309 to 311 °C
O=C(O)c1ccc(CO)o1 | 164 to 166 °C
COc1cc(OC)c(C(C)=O)cc1Cl | 134 to 136 °C
N#CCN1CCCC2CCCCC21 (configuration not stated) | 42 to 44 °C
CC(C)(C)OC(=O)NC1CCN(CC(=O)O)CC1 | 204 to 206 °C
CC(=O)c1c[nH]c2cc(Cl)ccc12 | 229 to 231 °C
Cc1c(C(=O)O)nnn1-c1ccc2c(c1)OCCO2 | 189 to 191 °C
NC(C(=O)O)c1ccc(Br)cc1 (configuration not stated) | 249 to 251 °C
CCOC(=O)C1=C(CBr)C(C)(C)OC1=O | 87 to 89 °C
Cc1cn2c(C=O)c(C)nc2s1 | 153 to 155 °C
Cc1nn(C)c(SCC(=O)O)c1C=O | 126 to 128 °C
CNCC(=O)Nc1ccc(Cl)cc1 | 58 to 60 °C
O=C(O)[C@@H]1CCCN1C(=O)Nc1ccc2c(c1)OCCO2 | 176 to 178 °C
Cc1cc(Br)ccc1CO | 74 to 76 °C

SMILES | melting point
c1cc(C2CCCNC2)[nH]n1 (configuration not stated) | 74 to 76 °C
CCOC(=O)c1c(CC(C)C)csc1N | 58 to 60 °C
N#Cc1ccc(N2CCNCC2)c(F)c1 | 84 to 86 °C
COC(=O)c1oc(CCl)cc1C | 53 to 55 °C
ClCc1cc2c(cc1Br)OCO2 | 62 to 66 °C
Cc1c(C(=O)O)cnn1C(C)(C)C | 132 to 134 °C
O=C(O)C(Cc1ccsc1)C(=O)O | 108 to 110 °C
Cc1cc(C)c(Nc2nnc(S)s2)c(Cl)c1 | 198 to 200 °C
COc1cc(C(=O)O)c(N)cc1OC(F)F | 152 to 154 °C
Cc1cc(NC(=O)CCl)no1 | 182 to 190 °C
O=C(O)c1ccc(CN2CCC(CO)CC2)cc1 | 219 to 221 °C
COc1cc(C=O)ccc1OC(=O)OC(C)(C)C | 89 to 91 °C
O=S(=O)(F)CCn1nnc(-c2ccccc2)n1 | 97 to 99 °C
COc1ccccc1NC(=O)Cc1noc(CCl)n1 | 95 to 97 °C
O=C(CC1CCCC1)N1CCNCC1 | 37 to 39 °C
O=C(O)C1CCCN(C(=O)c2ccccc2)C1 (configuration not stated) | 189 to 191 °C
Cc1ccc(OC(C)C(=O)O)cc1 (configuration not stated) | 101 to 103 °C
CCC(=O)NC=C(Cl)Cl | 93 to 95 °C
Cc1csc(NC(=O)C2CCCNC2)n1 (configuration not stated) | 164 to 166 °C
COc1cccc(CC2(C(=O)O)CC3CCC2C3)c1 (configuration not stated) | 67 to 69 °C
CCC(N)C(=O)NC(CC)c1ccc(C)cc1 (configuration not stated) | 59 to 61 °C

The remaining lines, values ahead:

melting point | SMILES
190 to 192 °C | N#Cc1sc(-c2cccc(Cl)c2)cc1N
129 to 131 °C | Cc1ccccc1CC(=O)NN
169 to 171 °C | Nc1ncc(Br)cc1S(=O)(=O)N1CCCC1
37 to 39 °C | CCOC(=O)c1cnc2ccccc2c1Cl
106 to 108 °C | Nc1cc(N2CCCC2=O)ccc1F
132 to 134 °C | N#CCC(=O)N1CCN(c2ccccc2)CC1
254 to 256 °C | O=C(O)c1ccc2ncc(I)n2c1
169 to 171 °C | Cc1ccc2[nH]cnc2c1C
255 to 257 °C | O=C(O)c1c[nH]nc1-c1ccccc1Cl
261 to 263 °C | O=C(O)c1ccc(-c2nnco2)cc1
320 to 322 °C | N#Cc1cnn(-c2ncccn2)c1N
166 to 168 °C | O=C(O)c1cccnc1Oc1ccccc1Br
201 to 203 °C | OCc1cccc2cn[nH]c12
146 to 148 °C | Sc1nnc(NCc2ccccc2)s1
196 to 198 °C | COc1ccc(CNC(=O)c2c[nH]nc2N)cc1
39 to 41 °C | Cc1ccc(C=O)nc1
148 to 150 °C | CC(C)c1ccc(C(N)=S)cc1
199 to 201 °C | Nc1ncc(Br)cc1S(N)(=O)=O
124 to 126 °C | Cc1cc(-c2noc(CCC(=O)O)n2)ccc1F
151 to 153 °C | O=C(O)CN1C(=O)CSc2ccccc21
149 to 151 °C | O=Cc1cnn2cccnc12

melting point | SMILES
165 to 167 °C | Nc1ccc(N2CCCC2=O)cn1
157 to 159 °C | Cc1cccc(-n2nnc(C(=O)O)c2C)c1
128 to 130 °C | Cn1nnnc1-c1cccc(NC(=O)OCC(F)(F)F)c1
135 to 137 °C | COc1cc(Br)ccc1C#N
105 to 107 °C | Cc1ccc(N)cc1S(=O)(=O)N1CCCCC1
168 to 170 °C | O=C(O)C(=O)c1cnn(-c2ccccc2)c1
118 to 120 °C | Cn1c(S)nnc1COc1ccc(Cl)cc1
202 to 204 °C | CC(C)(C)OC(=O)N1CCc2c(sc(N)c2C#N)C1
161 to 163 °C | Fc1cc(Br)cc2cc(Br)cnc12
115 to 117 °C | CCOc1ccc(C(N)=S)cc1
218 to 220 °C | Nc1ccc(-n2cc(S(N)(=O)=O)cn2)nc1
160 to 162 °C | CCc1ccc(C(N)=NO)cc1
263 to 265 °C | NNc1ncnc2sc(-c3ccccc3)cc12
150 to 152 °C | Cc1nc(-c2ccc(N)cc2)oc1C
126 to 128 °C | CCOc1ccc(-c2cc(N)on2)cc1
194 to 196 °C | CCOC(=O)c1nc2cc(Cl)ncn2n1
229 to 231 °C | Nc1cc(-c2cccc(Br)c2)ncn1
173 to 175 °C | CN(C)S(=O)(=O)c1cc(Br)cnc1N
175 to 177 °C | Nc1ccc(C(=O)NC2CCCCC2)cc1
112 to 114 °C | Nc1sc2c(c1C(=O)NCc1ccccc1)CCCC2
111 to 113 °C | Clc1cc2nncn2cn1

melting point | SMILES
189 to 191 °C | CSc1ccc(-c2nc(=N)s[nH]2)cc1
199 to 201 °C | NC(=O)COc1ccccc1C(=O)O
259 to 261 °C | O=C(O)c1ccncc1N1CCCC1
149 to 151 °C | Nc1ccc(-c2nc3cccc(Cl)c3s2)cc1
111 to 113 °C | CC(=O)c1nnn(-c2ccc(C)cc2)c1C
104 to 106 °C | N#Cc1cccc(Oc2ccc(N)cn2)c1
81 to 83 °C | O=C(CNCc1cccnc1)Nc1ccc(Cl)cc1
228 to 230 °C | CCOc1ccc(C=C(C#N)C(=O)O)cc1
174 to 176 °C | Oc1cccc(-n2cnnn2)c1
186 to 188 °C | Brc1nn2cc(-c3ccccc3)nc2s1
149 to 151 °C | Nc1nc(-c2cccc(Cl)c2)ns1
173 to 175 °C | Cc1ncc(CO)n1-c1ccccc1
176 to 178 °C | O=C(O)Cn1nc(-c2cccs2)oc1=O
97 to 99 °C | COc1ccc(-c2nc(C=O)cs2)cc1
116 to 118 °C | O=Cc1ccnc(-c2ccccc2)n1
119 to 121 °C | O=Cc1ccc(Br)c2cccnc12
187 to 189 °C | O=C(O)c1cnc(-c2ccccc2F)s1
75 to 77 °C | Cc1cccc(OCC(O)CN)c1 (configuration not stated)
166 to 168 °C | Cc1nccn1-c1ncccc1N
192 to 194 °C | CS(=O)(=O)c1ccc2nnn(O)c2c1
83 to 85 °C | Cc1ccc(N)c(OCC(=O)N(C)C)c1
